This note sets out measurements from ChEMBL document CHEMBL5233273, “An overview of hydroxypyranone and hydroxypyridinone as privileged scaffolds for novel drug discovery” (Eur J Med Chem, 2021).

Values after ≈ are worked out from the molar mass of the structure shown.

The test system of the first assay is Candida albicans. Description: Antifungal activity against Candida albicans ATCC 90028. The class given is functional.
Conditions: not given
`Cc1cc(=O)c(O)c(CN2CCN(c3ccc(F)cc3)CC2)o1`: the MIC (in general, the least concentration at which growth counts as inhibited) was determined as 64 µg/mL (≈ 201 µM). For `CC(=O)c1ccc(N2CCN(Cc3oc(C)cc(=O)c3O)CC2)cc1`, the MIC worked out at 64 µg/mL (≈ 187 µM). The same measure, in the same setting: as for `COc1cccc(N2CCN(Cc3oc(C)cc(=O)c3O)CC2)c1`, the figure is 64 µg/mL (≈ 194 µM).

The compound `Cc1cc(=O)c(O)c(CN2CCN(c3ccccn3)CC2)o1` came in with an MIC of 64 µg/mL (≈ 212 µM). Still for that read-out and setting: the same measure for `Cc1cc(=O)c(O)c(CN2CCN(c3ccccc3)CC2)o1`: 64 µg/mL (≈ 213 µM); for `Cc1cc(=O)c(O)c(CN2CCN(c3ccccc3F)CC2)o1`: 64 µg/mL (≈ 201 µM). The same measure, in the same setting: the same measure for `Cc1cc(=O)c(O)c(CN2CCN(c3ccc([N+](=O)[O-])cc3)CC2)o1`: 64 µg/mL (≈ 185 µM); for `Cc1cc(=O)c(O)c(CN2CCN(c3cccc(C(F)(F)F)c3)CC2)o1`: 64 µg/mL (≈ 174 µM).

System in another assay: not listed separately
Description: Neuroprotective activity in CGC cells assessed as inhibition of lipid peroxidation. The class given is functional, cell-based. The note with it: cerebellar granule neurone.
Consider `Cc1c(O)c(=O)ccn1CCc1cc(C(C)(C)C)c(O)c(C(C)(C)C)c1`, for which the IC50 (usually the concentration needed to halve the response being measured) came to 300 nM. Same read-out and setting: the same measure for `Cc1c(O)c(=O)ccn1CCSc1cc(C(C)(C)C)c(O)c(C(C)(C)C)c1`: 400 nM.

For another assay, the target named is DNA gyrase (Escherichia coli, UniProt P0AES4+P0AES6). Briefly: Inhibition of Escherichia coli DNA gyrase. The class given is protein-complex assay.
Conditions: not given
`Cc1[nH]c(C(=O)N[C@H]2CCc3nc(NC(=O)[C@@H](NC(=O)c4cc(=O)c(O)c[nH]4)C(C)C)sc3C2)c(Cl)c1Cl` yielded an IC50 of 640 nM. Still for that read-out and setting: the same measure for `Cc1[nH]c(C(=O)N[C@H]2CCc3nc(NC(=O)[C@H](C)NC(=O)c4cc(=O)c(O)c[nH]4)sc3C2)c(Cl)c1Cl`: 260 nM. Same read-out and setting: as for `Cc1[nH]c(C(=O)N[C@H]2CCc3nc(NCc4cc(=O)c(O)co4)sc3C2)c(Cl)c1Cl`, the figure is 2100 nM. Still for that read-out and setting: as for `O=C(N[C@H]1CCc2nc(NCc3cc(=O)c(O)co3)sc2C1)c1cc(Br)c(Br)[nH]1`, the figure is 180 nM.

Turning to `Cc1[nH]c(C(=O)N[C@H]2CCc3nc(NC(=O)CCNC(=O)c4cc(=O)c(O)c[nH]4)sc3C2)c(Cl)c1Cl`, the IC50 worked out at 350 nM.

A further assay concerns the target T1, Tyrosinase (Agaricus bisporus, UniProt O42713).
T1 sequence (O42713 whole entry): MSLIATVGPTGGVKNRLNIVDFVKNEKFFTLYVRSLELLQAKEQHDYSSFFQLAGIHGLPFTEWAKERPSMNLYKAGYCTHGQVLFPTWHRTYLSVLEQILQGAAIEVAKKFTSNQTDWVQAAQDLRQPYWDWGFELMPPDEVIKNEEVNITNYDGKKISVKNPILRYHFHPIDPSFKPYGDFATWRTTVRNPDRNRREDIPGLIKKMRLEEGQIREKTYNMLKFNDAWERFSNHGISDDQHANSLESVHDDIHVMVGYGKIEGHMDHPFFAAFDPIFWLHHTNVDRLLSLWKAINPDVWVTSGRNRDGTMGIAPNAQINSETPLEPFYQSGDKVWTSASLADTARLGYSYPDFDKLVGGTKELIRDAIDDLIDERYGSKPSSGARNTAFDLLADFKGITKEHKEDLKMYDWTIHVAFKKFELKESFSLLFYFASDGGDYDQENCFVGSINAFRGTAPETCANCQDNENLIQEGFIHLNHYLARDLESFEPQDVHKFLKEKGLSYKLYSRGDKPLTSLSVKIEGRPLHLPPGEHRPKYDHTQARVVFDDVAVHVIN
Description: Inhibition of mushroom tyrosinase monophenolase activity.
Conditions: not given
As to `CCCCCCCCn1cc(O)c(=O)cc1/C=N/OCC`, 1600 nM corresponded to half-maximal inhibition (IC50).

As to `CCCCCCCCn1cc(O)c(=O)cc1COC(=O)[C@@H](N)Cc1ccccc1`, the IC50 was 12600 nM.

Another assay addresses T2, Tyrosinase (Agaricus bisporus) (UniProt O42713).
T2 sequence (whole entry): T1 sequence (O42713 whole entry)
Briefly: Potency index, ratio of kojic acid IC50 to test compound IC50 for inhibition of mushroom tyrosinase.
Conditions: not given
`O=c1cc(Cn2cc(COc3ccc4ccccc4c3)nn2)occ1O`: the Ratio IC50 stood at 155.

Take `O=c1cc(CO)oc(CN2CCN(Cc3ccc(Cl)c(Cl)c3)CC2)c1O`: the Ratio IC50 was determined as 5. Take `O=c1cc(Cn2cc(COc3cccc4ccccc34)nn2)occ1O`: the Ratio IC50 amounted to 31.

A further assay deals with T1, Tyrosinase. Description: Inhibition of mushroom tyrosinase.
Conditions: not given
`N#Cc1ccc(OCc2cn(Cc3cc(=O)c(O)co3)nn2)cc1`: the IC50 worked out at 60 nM. `O=c1cc(Cn2cc(COc3ccc4ccccc4c3)nn2)occ1O` yielded an IC50 of 60 nM. In turn, `O=c1cc(Cn2cc(COc3ccc(F)cc3)nn2)occ1O` returned an IC50 of 60 nM. With `CC(=O)Nc1ccc(OCc2cn(Cc3cc(=O)c(O)co3)nn2)cc1`, the IC50 came out at 60 nM. On the same count and under the same terms, the same measure for `O=c1cc(Cn2cc(COc3cccc(F)c3)nn2)occ1O`: 60 nM; for `O=C(OCc1cc(=O)c(O)co1)c1ccc2c(c1)OCCO2`: 1520 nM; for `O=c1cc(CSc2ccc(O)cc2)occ1O`: 540 nM.

`O=c1cc(Cn2cc(COc3ccc([N+](=O)[O-])cc3)nn2)occ1O` came in with an IC50 of 60 nM. Same read-out and setting: as for `O=c1cc(Cn2cc(COc3ccc(Cl)cc3Cl)nn2)occ1O`, the figure is 60 nM; as for `O=c1cc(Cn2cc(COc3cccc(Cl)c3)nn2)occ1O`, 60 nM; as for `O=c1cc(CO)oc(CN2CCN(Cc3ccc(Cl)c(Cl)c3)CC2)c1O`, 86200 nM. Same read-out and setting: the same measure for `O=c1cc(Cn2cc(COc3cccc4ccccc34)nn2)occ1O`: 60 nM; for `O=C(OCc1cc(=O)c(O)co1)c1ccc2c(c1)OCO2`: 1520 nM; for `COc1cc(OC)cc(OCc2cn(Cc3cc(=O)c(O)co3)nn2)c1`: 60 nM.

Compound `Nn1c(SCc2cc(=O)c(O)co2)nnc1-c1ccc(Cl)cc1` had an IC50 of 4500 nM.

Regarding `O=c1cc(Cn2cc(COc3ccc(Cl)cc3)nn2)occ1O`, the IC50 was 60 nM. Turning to `O=c1cc(Cn2cc(COc3ccc(Br)cc3)nn2)occ1O`, the IC50 was found to be 60 nM.

For `O=C(/C=C/c1ccc2c(c1)OCCO2)OCc1cc(=O)c(O)co1`, half-maximal inhibition (IC50) was put at 1520 nM. With `COc1cc(OCc2cn(Cc3cc(=O)c(O)co3)nn2)cc(OC)c1OC`, the IC50 is 60 nM. `O=c1cc(Cn2cc(COc3ccccc3)nn2)occ1O` gave an IC50 of 60 nM.

In turn, `COc1ccc(OCc2cn(Cc3cc(=O)c(O)co3)nn2)cc1` gave an IC50 of 60 nM. For `O=c1cc(Cn2cc(COc3ccc(CO)cc3)nn2)occ1O`, the IC50 stood at 60 nM.

In a further assay the target is T1, Tyrosinase. Description: Inhibition of mushroom tyrosinase diphenolase activity.
Conditions: not given
`CCCCCCCCn1cc(O)c(=O)cc1/C=N/OCC`: the midpoint of inhibition, the IC50, lay at 7990 nM. As to `CCCCCCCCn1cc(O)c(=O)cc1COC(=O)[C@@H](N)Cc1ccccc1`, the IC50 is 4000 nM.
